How the values were obtained:
[1] = Stability in human plasma (enzymatic hydrolysis), LC-MS/MS; type: in vitro ADME; conditions: 1 µM analyte, 37 °C, incubation 0-120 min; for half-life at 1 µM: male, read-out: T 1/2 Human plasma
Procedure: (§1) PBS was prepared by adding 8.01 g L^−1 of NaCl, 0.2 g L^−1 of KCl, 1.78 g L^−1 of Na2HPO4·2H2O, and 0.27 g L^−1 of KH2PO4. Human plasma was collected from healthy volunteer and the rat plasma was collected from Sprague-Dawley male rats; each plasma batch was kept at −80 °C until use.
(§2) The sample was prepared adding 10 µL of spiked solution to 100 µL of tested matrix (PBS or human plasma or rat plasma) in microcentrifuge tubes. The obtained solutions correspond to 1 µM of analyte.
(§3) Therefore, the matrix stability profile of each analyte was represented by a batch of 12 samples (4 incubation times ×3 replicates). After the incubation, the samples were added with 300 µL of ISTD solution and centrifuged (room temperature for 5 min at 800 g). The supernatants were transferred in autosampler vials and dried under a gentle stream of nitrogen.
(§4) The dried samples were dissolved in 1.0 mL of 10 mM of formic acid in mQ water:acetonitrile 80:20 solution[28].
(§5) An investigation on the chemical stability of compounds under study in PBS, human and rat plasma was performed for evaluating their susceptibility to spontaneous or enzymatic hydrolysis.
(§6) The stability profiles were obtained by monitoring the variation of analyte concentration at different incubation times in PBS or human or rat plasma samples. Generally, when the substrate concentration was smaller than the Michaelis–Menten constant (KM), the enzymatic degradation rate is described to a first-order kinetics. Therefore, plotting the natural logarithm of the quantitative data versus the incubation time, a linear function can be used and its slope represents the degradation rate constant (k).

[2] = Chemical stability in phosphate buffer solution (spontaneous hydrolysis), LC-MS/MS; type: physicochemical; conditions: phosphate buffer solution (PBS), 1 µM analyte, 37 °C, incubation 0-120 min, read-out: T 1/2 PBS
Procedure: as §2
as §3, with “Each set of samples was incubated in triplicate at four different times, 0, 30, 60, and 120 min at 37 °C. Therefore,” for “Therefore,”
as §4, §5, §6
(§7) All degradation plots of references and studied compounds were reported in the Supplemental material (SF11–SF26). The half-life of each tested compound was calculated as follows: (4) […]

[3] = Stability in rat plasma (enzymatic hydrolysis), LC-MS/MS; type: in vitro ADME, Sprague-Dawley male rats; conditions: male, Sprague-Dawley, 1 µM analyte, 37 °C, incubation 0-120 min, read-out: T 1/2 Rat plasma
Procedure: as §1, §2
as §3, with “Each set of samples was incubated in triplicate at four different times, 0, 30, 60, and 120 min at 37 °C. Therefore,” for “Therefore,”
as §4, §5
In order to establish the hydrolytic activity of the employed plasma batches, two reference compounds were tested, following the procedure reported in the section ‘Validation of LC-MS/MS methods’: KEE (half-life <2 h) and enalapril (half-life <0.5 h) to verify the human and rat plasma activity, respectively[32]^,[33].
as §6, §7

[4] = set-up: method as in PMID 28238510, PMID 28113128; conditions: cited from earlier work
[5] = set-up: method as in PMID 28238510, PMID 28113128; conditions: cited from earlier work; remark: listed apart in the source

Row | half-life at 1 µM [1] | half-life at 1 µM [2] | half-life at 1 µM [3] | T 1/2 Human plasma [1] | Compound | half-life (reference compound to verify rat plasma activity) [4] | half-life (reference compound to verify human plasma activity) [5]
1 | > 4 h | > 4 h | > 4 h |  | COc1ccc2c(c1)c(CC(=O)NCCOc1ccc3oc(=O)ccc3c1)c(C)n2C(=O)c1ccc(Cl)cc1 [Compound 1A] |  | 
2 | > 4 h | > 4 h | > 4 h |  | COc1ccc2c(c1)c(CC(=O)NCCOc1ccc3ccc(=O)oc3c1)c(C)n2C(=O)c1ccc(Cl)cc1 [Compound 1B] |  | 
3 | > 4 h | > 4 h | > 4 h |  | CC1=C(CC(=O)NCCOc2ccc3ccc(=O)oc3c2)c2cc(F)ccc2/C1=C\c1ccc([S+](C)[O-])cc1 (stereo not shown) [Compound 2B] |  | 
4 | > 4 h | > 4 h | > 4 h |  | O=C(Cc1ccccc1Nc1c(Cl)cccc1Cl)NCCOc1ccc2ccc(=O)oc2c1 [Compound 5B] |  | 
5 | > 4 h | > 4 h | > 4 h |  | COc1ccc2cc(C(C)C(=O)NCCOc3ccc4oc(=O)ccc4c3)ccc2c1 (stereo not shown) [Compound 8A] |  | 
6 | > 4 h | > 4 h | > 4 h |  | COc1ccc2cc(C(C)C(=O)NCCOc3ccc4ccc(=O)oc4c3)ccc2c1 (stereo not shown) [Compound 8B] |  | 

Further lines, the molecule ahead of its results:

Row | Compound | half-life at 1 µM [1] | half-life at 1 µM [2] | half-life at 1 µM [3] | T 1/2 Human plasma [1] | half-life (reference compound to verify rat plasma activity) [4] | half-life (reference compound to verify human plasma activity) [5]
7 | CC1=C(CC(=O)NCCOc2ccc3oc(=O)ccc3c2)c2cc(F)ccc2/C1=C\c1ccc([S+](C)[O-])cc1 (stereo not shown) [Compound 2A] | > 4 h | > 4 h | > 4 h |  |  | 
8 | CC(C(=O)NCCOc1ccc2oc(=O)ccc2c1)c1cccc(C(=O)c2ccccc2)c1 (stereo not shown) [Compound 3A] | > 4 h | > 4 h | > 4 h |  |  | 
9 | CC(C(=O)NCCOc1ccc2ccc(=O)oc2c1)c1cccc(C(=O)c2ccccc2)c1 (stereo not shown) [Compound 3B] | > 4 h | > 4 h | > 4 h |  |  | 
10 | CC(C)Cc1ccc(C(C)C(=O)NCCOc2ccc3oc(=O)ccc3c2)cc1 (stereo not shown) [Compound 4A] | > 4 h | > 4 h | > 4 h |  |  | 
11 | CC(C)Cc1ccc(C(C)C(=O)NCCOc2ccc3ccc(=O)oc3c2)cc1 (stereo not shown) [Compound 4B] | > 4 h | > 4 h | > 4 h |  |  | 
12 | O=C(Cc1ccccc1Nc1c(Cl)cccc1Cl)NCCOc1ccc2oc(=O)ccc2c1 [Compound 5A] | > 4 h | > 4 h | > 4 h |  |  | 
13 | CC(C(=O)NCCOc1ccc2oc(=O)ccc2c1)c1ccc(-c2ccccc2)c(F)c1 (stereo not shown) [Compound 6A] | > 4 h | > 4 h | > 4 h |  |  | 
14 | CC(C(=O)NCCOc1ccc2ccc(=O)oc2c1)c1ccc(-c2ccccc2)c(F)c1 (stereo not shown) [Compound 6B] | > 4 h | > 4 h | > 4 h |  |  | 
15 | O=C(c1ccccc1)c1ccc2n1CCC2C(=O)NCCOc1ccc2oc(=O)ccc2c1 (stereo not shown) [Compound 7A] | > 4 h | > 4 h | > 4 h |  |  | 
16 | O=C(c1ccccc1)c1ccc2n1CCC2C(=O)NCCOc1ccc2ccc(=O)oc2c1 (stereo not shown) [Compound 7B] | > 4 h | > 4 h | > 4 h |  |  | 
17 | CCOC(=O)[C@H](CCc1ccccc1)N[C@@H](C)C(=O)N1CCC[C@H]1C(=O)O [Enalapril, enalapril, reference compound] |  |  | 0.367 h |  | < 0.5 h | 
18 | CCOC(=O)C(C)c1cccc(C(=O)c2ccccc2)c1 (stereo not shown) [KEE, Ketoprofen ethyl ester, reference compound] |  |  |  | 1.58 h |  | < 2 h
